Measured values from patent publication US6737383B1, “Herbicidal oxadiazolidines” (priority 1999, dated 2004).

What was measured:
pigweed = experiment: Test B pre/postemergence pigweed; type: in vivo, Amaranthus retroflexus; conditions: for Redroot pigweed plant response rating: scale of 0 to 10 where 0 is no effect and 10 is complete control
How it was run: (§1)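 Herbicidal effect was estimated by eye on a ten-point control scale after plants spent twelve to sixteen days in a greenhouse following soil or foliar treatment. Foliar sprays targeted plants at one to four leaves; all doses were formulated in a non-phytotoxic solvent with surfactant.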

morningglory = experiment: Test B pre/postemergence morningglory; type: in vivo, Ipomoea hederacea; conditions: for Morningglory plant response rating: scale of 0 to 10 where 0 is no effect and 10 is complete control
How it was run: as §1

blackgrass = experiment: Test B pre/postemergence blackgrass; type: in vivo, Alopecurus myosuroides; conditions: for Blackgrass plant response rating: scale of 0 to 10 where 0 is no effect and 10 is complete control
How it was run: as §1

velvetleaf = experiment: Test B pre/postemergence velvetleaf; type: in vivo, Abutilon theophrasti; conditions: for Velvetleaf plant response rating: scale of 0 to 10 where 0 is no effect and 10 is complete control
How it was run: as §1

cocklebur = experiment: Test B pre/postemergence cocklebur; type: in vivo, Xanthium strumarium; conditions: for Cocklebur plant response rating: scale of 0 to 10 where 0 is no effect and 10 is complete control
How it was run: as §1

sugar beet = experiment: Test B pre/postemergence sugar beet; type: in vivo, Beta vulgaris; conditions: for Sugarbeets plant response rating: scale of 0 to 10 where 0 is no effect and 10 is complete control
How it was run: as §1

purple nutsedge = experiment: Test B pre/postemergence purple nutsedge; type: in vivo, Cyperus rotundus; conditions: for Nutsedge plant response rating: scale of 0 to 10 where 0 is no effect and 10 is complete control
How it was run: as §1

wheat = experiment: Test B pre/postemergence wheat; type: in vivo, Triticum aestivum; conditions: for Wheat plant response rating: scale of 0 to 10 where 0 is no effect and 10 is complete control
How it was run: as §1

rice = experiment: Test B flood test rice; type: in vivo, Oryza sativa
How it was run: (§2)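 Each value is a visual injury score relative to controls, with 10 meaning complete control and 0 no effect. Evaluation took place twelve to sixteen days after the 2-leaf-stage plants were treated and kept in the greenhouse.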

crabgrass = experiment: Test B pre/postemergence crabgrass; type: in vivo, Digitaria sanguinalis; conditions: for Crabgrass plant response rating: scale of 0 to 10 where 0 is no effect and 10 is complete control
How it was run: as §1

duck salad = experiment: Test B flood test duck salad; type: in vivo, Heteranthera limosa
How it was run: as §2

surinam grass = experiment: Test B pre/postemergence surinam grass; type: in vivo, Brachiaria decumbens; conditions: for B. signalgrass plant response rating: scale of 0 to 10 where 0 is no effect and 10 is complete control
How it was run: as §1

wild oat = experiment: Test B pre/postemergence wild oat; type: in vivo, Avena fatua; conditions: for Wild oats plant response rating: scale of 0 to 10 where 0 is no effect and 10 is complete control
How it was run: as §1

giant foxtail = experiment: Test B pre/postemergence giant foxtail; type: in vivo, Setaria faberii; conditions: for Giant foxtail plant response rating: scale of 0 to 10 where 0 is no effect and 10 is complete control
How it was run: as §1

bedstraw = experiment: Test B pre/postemergence bedstraw; type: in vivo, Galium aparine; conditions: Preemergence
How it was run: as §1

bamyardgrass = experiment: Test B flood test barnyardgrass; type: in vivo, Echinochloa crus-galli
How it was run: as §2

[1] = Postemergence, Rate 125 g/ha, scale 0 to 10, 0 is no effect, 10 is complete control
[2] = Postemergence, Rate 250 g/ha, scale 0 to 10, 0 is no effect, 10 is complete control
[3] = Preemergence, Rate 62 g/ha, scale 0 to 10 (0 no effect, 10 complete control)
[4] = Rate 500 g/ha, Postemergence, scale 0 to 10, 0 no effect, 10 complete control
[5] = Postemergence (flood test), Rate 125 g/ha, scale 0 to 10, 0 is no effect, 10 is complete control
[6] = Rate 62 g/ha, Postemergence (flood test species), scale of 0 to 10 where 0 is no effect and 10 is complete control
[7] = Rate 62 g/ha, flood test species, Pre-emergence, visual evaluation after twelve to sixteen days
[8] = Rate 125 g/ha, Pre-emergence, flood test species, scale 0 to 10 where 0 is no effect and 10 is complete control
[9] = Rate 250 g/ha, Pre-emergence, flood-test species, scale 0 to 10, 0 is no effect, 10 is complete control
[10] = Rate 500 g/ha, listed under Postemergence (flood test species), scale 0 to 10, 0 no effect, 10 complete control
[11] = Rate 500 g/ha, Pre-emergence, flood test species, scale 0 to 10 (0 no effect, 10 complete control)
[12] = flood test species, listed under Postemergence, Rate 250 g/ha, scale 0 to 10, 0 is no effect, 10 is complete control

CC1CC1n1c(=O)on(C(=O)N(c2ccccc2)C(C)C)c1=O (stereo not shown) [Compound 370]
Plant response rating, Redroot pigweed (pigweed; [1]): 0
Plant response rating, Redroot pigweed (pigweed; [2]): 0
Plant response rating, Redroot pigweed (pigweed; [3]): 5
Redroot pigweed plant response rating (0 to 10 scale) (pigweed; Preemergence, Rate 125 g/ha): 7
Redroot pigweed plant response rating (pigweed; Preemergence, Rate 250 g/ha): 10
Redroot pigweed plant response rating (pigweed; Preemergence, Rate 500 g/ha): 10
Redroot pigweed plant response rating (pigweed; Rate 62 g/ha, Postemergence): 0
Plant response rating, Redroot pigweed (pigweed; [4]): 3
Plant response rating, Morningglory (morningglory; [1]): 10
Plant response rating, Morningglory (morningglory; [2]): 10
Plant response rating, Morningglory (morningglory; [3]): 0
Morningglory plant response rating (0 to 10 scale) (morningglory; Preemergence, Rate 125 g/ha): 0
Morningglory plant response rating (morningglory; Preemergence, Rate 250 g/ha): 2
Morningglory plant response rating (morningglory; Preemergence, Rate 500 g/ha): 3
Morningglory plant response rating (morningglory; Rate 62 g/ha, Postemergence): 10
Plant response rating, Morningglory (morningglory; [4]): 10
Plant response rating, Blackgrass (blackgrass; [1]): 4
Plant response rating, Blackgrass (blackgrass; [2]): 4
Plant response rating, Blackgrass (blackgrass; [3]): 6
Blackgrass plant response rating (0 to 10 scale) (blackgrass; Preemergence, Rate 125 g/ha): 8
Blackgrass plant response rating (blackgrass; Preemergence, Rate 250 g/ha): 9
Blackgrass plant response rating (blackgrass; Preemergence, Rate 500 g/ha): 10
Blackgrass plant response rating (blackgrass; Rate 62 g/ha, Postemergence): 2
Plant response rating, Blackgrass (blackgrass; [4]): 5
Plant response rating, Velvetleaf (velvetleaf; [1]): 0
Plant response rating, Velvetleaf (velvetleaf; [2]): 0
Plant response rating, Velvetleaf (velvetleaf; [3]): 2
Velvetleaf plant response rating (0 to 10 scale) (velvetleaf; Preemergence, Rate 125 g/ha): 4
Velvetleaf plant response rating (velvetleaf; Preemergence, Rate 250 g/ha): 5
Velvetleaf plant response rating (velvetleaf; Preemergence, Rate 500 g/ha): 6
Velvetleaf plant response rating (velvetleaf; Rate 62 g/ha, Postemergence): 0
Plant response rating, Velvetleaf (velvetleaf; [4]): 4
Plant response rating, Cocklebur (cocklebur; [1]): 0
Plant response rating, Cocklebur (cocklebur; [2]): 2
Cocklebur plant response rating (0 to 10 scale) (cocklebur; Preemergence, Rate 125 g/ha): 0
Cocklebur plant response rating (cocklebur; Preemergence, Rate 250 g/ha): 0
Cocklebur plant response rating (cocklebur; Preemergence, Rate 500 g/ha): 10
Cocklebur plant response rating (cocklebur; Rate 62 g/ha, Postemergence): 0
Plant response rating, Cocklebur (cocklebur; [4]): 3
Plant response rating, Sugarbeets (sugar beet; [1]): 0
Plant response rating, Sugarbeets (sugar beet; [2]): 0
Plant response rating, Sugarbeets (sugar beet; [3]): 2
Sugarbeets plant response rating (0 to 10 scale) (sugar beet; Preemergence, Rate 125 g/ha): 3
Sugarbeets plant response rating (sugar beet; Preemergence, Rate 250 g/ha): 5
Sugarbeets plant response rating (sugar beet; Rate 62 g/ha, Postemergence): 0
Plant response rating, Sugarbeets (sugar beet; [4]): 0
Plant response rating, Nutsedge (purple nutsedge; [1]): 0
Plant response rating, Nutsedge (purple nutsedge; [2]): 0
Plant response rating, Nutsedge (purple nutsedge; [3]): 0
Nutsedge plant response rating (0 to 10 scale) (purple nutsedge; Preemergence, Rate 125 g/ha): 0
Nutsedge plant response rating (purple nutsedge; Preemergence, Rate 250 g/ha): 5
Nutsedge plant response rating (purple nutsedge; Preemergence, Rate 500 g/ha): 10
Nutsedge plant response rating (purple nutsedge; Rate 62 g/ha, Postemergence): 0
Plant response rating, Nutsedge (purple nutsedge; [4]): 5
Plant response rating, Wheat (wheat; [1]): 0
Plant response rating, Wheat (wheat; [2]): 0
Plant response rating, Wheat (wheat; [3]): 0
Wheat plant response rating (0 to 10 scale) (wheat; Preemergence, Rate 125 g/ha): 0
Wheat plant response rating (wheat; Preemergence, Rate 250 g/ha): 2
Wheat plant response rating (wheat; Preemergence, Rate 500 g/ha): 7
Wheat plant response rating (wheat; Rate 62 g/ha, Postemergence): 0
Plant response rating, Wheat (wheat; [4]): 3
Plant response rating, Rice (rice; [5]): 0
Rice plant response rating (rice; [6]): 0
Plant response rating, Rice (0 to 10 scale, 0 is no effect, 10 is complete control) (rice; [7]): 0
Rice plant response rating (rice; [8]): 0
Rice plant response rating (rice; [9]): 0
Plant response rating, Rice (rice; [10]): 2
Rice plant response rating (rice; [11]): 0
Plant response rating, Rice (rice; [12]): 2
Plant response rating, Crabgrass (crabgrass; [1]): 7
Plant response rating, Crabgrass (crabgrass; [2]): 7
Plant response rating, Crabgrass (crabgrass; [3]): 7
Crabgrass plant response rating (0 to 10 scale) (crabgrass; Preemergence, Rate 125 g/ha): 8
Crabgrass plant response rating (crabgrass; Preemergence, Rate 250 g/ha): 9
Crabgrass plant response rating (crabgrass; Preemergence, Rate 500 g/ha): 10
Crabgrass plant response rating (crabgrass; Rate 62 g/ha, Postemergence): 3
Plant response rating, Crabgrass (crabgrass; [4]): 9
Plant response rating, Ducksalad (duck salad; [5]): 2
Ducksalad plant response rating (duck salad; [6]): 0
Plant response rating, Ducksalad (0 to 10 scale, 0 is no effect, 10 is complete control) (duck salad; [7]): 0
Ducksalad plant response rating (duck salad; [8]): 0
Ducksalad plant response rating (duck salad; [9]): 0
Plant response rating, Ducksalad (duck salad; [10]): 3
Ducksalad plant response rating (duck salad; [11]): 0
Plant response rating, Ducksalad (duck salad; [12]): 3
Plant response rating, B. signalgrass (surinam grass; [1]): 2
Plant response rating, B. signalgrass (surinam grass; [2]): 4
Plant response rating, B. signalgrass (surinam grass; [3]): 0
B. signalgrass plant response rating (0 to 10 scale, 0 is no effect, 10 is complete control) (surinam grass; Preemergence, Rate 125 g/ha): 0
B. signalgrass plant response rating (surinam grass; Preemergence, Rate 250 g/ha): 2
B. signalgrass plant response rating (surinam grass; Preemergence, Rate 500 g/ha): 5
B. signalgrass plant response rating (surinam grass; Rate 62 g/ha, Postemergence): 0
Plant response rating, B. signalgrass (surinam grass; [4]): 6
Plant response rating, Wild oats (wild oat; [1]): 0
Plant response rating, Wild oats (wild oat; [2]): 3
Plant response rating, Wild oats (wild oat; [3]): 0
Wild oats plant response rating (0 to 10 scale) (wild oat; Preemergence, Rate 125 g/ha): 0
Wild oats plant response rating (wild oat; Preemergence, Rate 250 g/ha): 2
Wild oats plant response rating (wild oat; Preemergence, Rate 500 g/ha): 10
Wild oats plant response rating (wild oat; Rate 62 g/ha, Postemergence): 0
Plant response rating, Wild oats (wild oat; [4]): 5
Plant response rating, Giant foxtail (giant foxtail; [1]): 8
Plant response rating, Giant foxtail (giant foxtail; [2]): 8
Plant response rating, Giant foxtail (giant foxtail; [3]): 9
Giant foxtail plant response rating (0 to 10 scale) (giant foxtail; Preemergence, Rate 125 g/ha): 10
Giant foxtail plant response rating (giant foxtail; Preemergence, Rate 250 g/ha): 10
Giant foxtail plant response rating (giant foxtail; Preemergence, Rate 500 g/ha): 10
Giant foxtail plant response rating (giant foxtail; Rate 62 g/ha, Postemergence): 6
Plant response rating, Giant foxtail (giant foxtail; [4]): 9
Plant response rating, Bedstraw (bedstraw; Rate 62 g/ha, scale 0 to 10 (0 no effect, 10 complete control)): 0
Bedstraw plant response rating (0 to 10 scale) (bedstraw; Rate 125 g/ha): 3
Bedstraw plant response rating (bedstraw; Rate 250 g/ha, scale of 0 to 10 where 0 is no effect and 10 is complete control): 3
Plant response rating, Barnyardgrass (bamyardgrass; [5]): 0
Barnyardgrass plant response rating (bamyardgrass; [6]): 0
Plant response rating, Barnyardgrass (0 to 10 scale, 0 is no effect, 10 is complete control) (bamyardgrass; [7]): 0
Barnyardgrass plant response rating (bamyardgrass; [8]): 0
Barnyardgrass plant response rating (bamyardgrass; [9]): 0
Plant response rating, Barnyardgrass (bamyardgrass; [10]): 2
Barnyardgrass plant response rating (bamyardgrass; [11]): 0
Plant response rating, Barnyardgrass (bamyardgrass; [12]): 0
